Data as given in patent publication US20220142161A1, “METHOD OF IMPROVING THE GROWTH AND/OR THE YIELD OF PLANTS GROWN ON AGRICULTURALLY OR HORTICULTURALLY UTILIZED SUBSTRATES BY APPLYING A NITRICATION INHIBITOR ADDED TO THE IRRIGATION SYSTEM” (BASF SE, priority 2019, published 2022).

Tests used:
[1] = tested on: nitrification in sandy loam soil (soil microbial biomass); assay: Soil incubation with simulated drip irrigation: NH4 recovery and nitrification inhibition; conditions: for % NH4 recovery of applied NH4: 20° C., ammonium sulfate; for % nitrification inhibition: calculated according to equation 1
Method: (§1) In the examples a standardized sandy loam soil with coarse and very light texture was used.
For each test, three 500 ml plastic bottles were filled with 100 g of air dried soil each. Soil was moistened with deionized water to 50% of its water holding capacity. Then, the soil was incubated for two weeks at 20° C. to activate the microbial biomass. Ammonium sulfate was dissolved in deionized water in an amount corresponding to a nitrogen concentration of 10 g/L and supplemented by the desired amount of nitrogen inhibitor in an amount given in table 1. To each bottle 1 ml of the test solution was added by dripping the test solution with a pipette to the soil to simulate drop irrigation. Bottles were loosely capped to avoid contamination by dirt but to allow air exchange. The bottles were incubated at 20° C. for 0 to 42 days.
For determining the nitrogen content in the soil after incubation, to each bottle 300 mL of a 1% by weight solution of potassium sulfate in deionized water was added and the bottle was shaken for 2 h in a horizontal shaker at 150 rpm. Then the whole content of the bottle was filtered through a paper filter (MN 807 of Macherey-Nagel) and the filtrate was analyzed photometrically at 550 nm with respect to ammonium and nitrate by means of an auto analyzer AA11 of Merck.
Inhibition of nitrification was calculated by the following equation 1 (Bohland equation, DD 123771):
N (NO3) 1=Concentration of nitrogen contributed by NO3 without NI at the end of incubation
N (NO3) […]=Concentration of nitrogen contributed by NO3 with NI at the end of incubation
N (NO3) […]=Concentration of nitrogen contributed by NO3 at the beginning of incubation
The Examples were carried out in two separate series 1 and 2. All results are averages of 3 replications.

[2] = tested on: nitrification in sandy loam soil; assay: Leaching experiment in soil column with simulated drip irrigation; conditions: AS 90 mg N; NI/N (NH4) 0.8%; 9 days at 20° C., then about 43 mm precipitation; lower value = better inhibition
Method: as §1
100 g of air dried soil was filled in a 150 mL free draining column made of glass. Soil was moistened with deionized water to 50% of its water holding capacity. Then, the filled column was incubated for 24 h at 20° C. A solution of ammonium sulfate and optionally the nitrogen inhibitor in deionized water was deposited on the soil by means of a pipette to simulate drip irrigation. The amount of ammonium sulfate corresponds to 90 mg of nitrogen (N). The columns were then incubated for 9 days at 20° C. Then, deionized water was dripped to the soil corresponding to a precipitation of about 43 mm. Thereafter, the water was removed from the soil by applying a negative pressure until the moisture in the soil was 50% of its water holding capacity. The removed water (percolate) was collected and analyzed with regard to the total quantity of inorganic nitrogen (NH4 and NO3) as described for example 1. Since NH4 is more strongly bound to the soil compared to NO3 a lower nitrogen value indicates a better inhibition of nitrification.

[3] = first series, DAT14, NI/N (NH4) 0.8%
[4] = first series, DAT28, NI/N (NH4) 0.8%
[5] = first series, DAT42, NI/N (NH4) 0.8%
[6] = first series, DAT14, NI/N (NH4) 10%
[7] = first series, DAT28, NI/N (NH4) 10%
[8] = first series, DAT42, NI/N (NH4) 10%
[9] = second series, DAT7, NI/N (NH4) 0.4%
[10] = second series, DAT14, NI/N (NH4) 0.4%
[11] = second series, DAT28, NI/N (NH4) 0.4%
[12] = second series, DAT42, NI/N (NH4) 0.4%
[13] = second series, DAT7, NI/N (NH4) 0.8%
[14] = second series, DAT14, NI/N (NH4) 0.8%
[15] = second series, DAT28, NI/N (NH4) 0.8%
[16] = second series, DAT42, NI/N (NH4) 0.8%

Clc1cccc(C(Cl)(Cl)Cl)n1 [Nitrapyrin, 2-chloro-6-(trichloromethyl)pyridine]
% NH4 recovery of applied NH4 [1, 3]: 31% | % nitrification inhibition [1, 3]: 33% | % NH4 recovery of applied NH4 [1, 4]: 3% | % nitrification inhibition [1, 4]: 4% | % NH4 recovery of applied NH4 [1, 5]: 0% | % nitrification inhibition [1, 5]: −2% | Total N: total quantity of inorganic nitrogen (NH4 and NO3) in percolate [2]: 7.1 mg

N#CN=C(N)N [DCD, dicyandiamide]
% NH4 recovery of applied NH4 [1, 6]: 63% | % nitrification inhibition [1, 6]: 59% | % NH4 recovery of applied NH4 [1, 7]: 13% | % nitrification inhibition [1, 7]: 15% | % NH4 recovery of applied NH4 [1, 8]: 0% | % nitrification inhibition [1, 8]: 3%

2-(3,4-dimethyl-1H-pyrazol-1-yl)succinic acid and 2-(4,5-dimethyl-1H-pyrazol-1-yl)succinic acid [DMPSA]
inhibition of nitrification in drip irrigation compared to DCD and Nitrapyrin ([1]; conclusion from tables 1 and 2): longer and stronger inhibition of nitrification | % NH4 recovery of applied NH4 [1, 3]: 82% | % nitrification inhibition [1, 3]: 74% | % NH4 recovery of applied NH4 [1, 4]: 48% | % nitrification inhibition [1, 4]: 59% | % NH4 recovery of applied NH4 [1, 5]: 27% | % nitrification inhibition [1, 5]: 34% | effectiveness relative to DMPP ([1]; half amount of DMPSA gives comparable nitrification inhibition): almost twice effective as DMPP | % NH4 recovery of applied NH4 [1, 9]: 82% | % nitrification inhibition [1, 9]: 76% | % NH4 recovery of applied NH4 [1, 10]: 73% | % nitrification inhibition [1, 10]: 75% | % NH4 recovery of applied NH4 [1, 11]: 61% | % nitrification inhibition [1, 11]: 66% | % NH4 recovery of applied NH4 [1, 12]: 63% | % nitrification inhibition [1, 12]: 56% | Total N: total quantity of inorganic nitrogen (NH4 and NO3) in percolate [2]: 6.0 mg

Cc1c[nH]nc1C.O=P(O)(O)O [DMPP, 3,4-dimethyl pyrazole phosphate]
% NH4 recovery of applied NH4 [1, 13]: 75% | % nitrification inhibition [1, 13]: 70% | % NH4 recovery of applied NH4 [1, 14]: 71% | % nitrification inhibition [1, 14]: 76% | % NH4 recovery of applied NH4 [1, 15]: 64% | % nitrification inhibition [1, 15]: 66% | % NH4 recovery of applied NH4 [1, 16]: 66% | % nitrification inhibition [1, 16]: 61% | Total N: total quantity of inorganic nitrogen (NH4 and NO3) in percolate [2]: 6.3 mg
